Measurements as given in PMC5218480 (PLoS ONE, 2017).

System: MV-4-11 cells
Test: Gene expression microarray analysis (Affymetrix PrimeView) and GSEA
Format: cell-based, human
Set-up: RFU PODN (11730768_x_at) / Fold change /veh PODN (11730768_x_at) / RFU LINC00158 (11744669_a_at) / Fold change /veh LINC00158 (11744669_a_at) / RFU DUSP10 (11751237_a_at) / Fold change /veh DUSP10 (11751237_a_at) / RFU ID3 (11757404_x_at) / Fold change /veh ID3 (11757404_x_at) / RFU PLEKHG5 (11737974_s_at) / Fold change /veh PLEKHG5 (11737974_s_at) / RFU LRRC4B (11730491_at) / Fold change /veh LRRC4B (11730491_at) / RFU GIMAP4 (11747438_a_at) / Fold change /veh GIMAP4 (11747438_a_at) / RFU KRT8 (11758183_x_at) / Fold change /veh KRT8 (11758183_x_at) / RFU CNN1 (11734310_a_at) / Fold change /veh CNN1 (11734310_a_at) / RFU VPS37D (11726825_at) / Fold change /veh VPS37D (11726825_at) / RFU C10orf10 (11716522_x_at) / Fold change /veh C10orf10 (11716522_x_at) / RFU KIR2DL2 /// KIR2DL4 /// KIR2DL5A /// KIR2DL5B /// KIR2DS1 /// KIR2DS2 /// KIR2DS3 /// KIR2DS4 /// KIR3DL3 /// KIR3DL3 /// KIR3DS1 (11738374_at) / Fold change /veh KIR2DL2 /// KIR2DL4 /// KIR2DL5A /// KIR2DL5B /// KIR2DS1 /// KIR2DS2 /// KIR2DS3 /// KIR2DS4 /// KIR3DL3 /// KIR3DL3 /// KIR3DS1 (11738374_at) / RFU C1QL1 (11718748_at) / Fold change /veh C1QL1 (11718748_at) / RFU TMPRSS4 (11747572_a_at) / Fold change /veh TMPRSS4 (11747572_a_at) / RFU HAMP (11756126_x_at) / Fold change /veh HAMP (11756126_x_at) / RFU RNFT2 (11725882_a_at) / Fold change /veh RNFT2 (11725882_a_at) / RFU NR4A2 (11747474_a_at) / Fold change /veh NR4A2 (11747474_a_at) / RFU ABCC12 (11746883_a_at) / Fold change /veh ABCC12 (11746883_a_at) / RFU TMEM136 (11760407_x_at) / Fold change /veh TMEM136 (11760407_x_at) / RFU CLDN22 /// WWC2 (11732394_at) / Fold change /veh CLDN22 /// WWC2 (11732394_at) / RFU HLA-DPB1 (11760878_x_at) / Fold change /veh HLA-DPB1 (11760878_x_at) / RFU SPINT1 (11716480_a_at) / Fold change /veh SPINT1 (11716480_a_at) / RFU GAP43 (11754022_s_at) / Fold change /veh GAP43 (11754022_s_at) / RFU A4GNT (11735810_at) / Fold change /veh A4GNT (11735810_at) / RFU PRB3 (11715151_x_at) / Fold change /veh PRB3 (11715151_x_at) / RFU TUBB4B (11761932_at) / Fold change /veh TUBB4B (11761932_at) / RFU CAPN14 (11732068_a_at) / Fold change /veh CAPN14 (11732068_a_at) / RFU TMCC2 (11721928_a_at) / Fold change /veh TMCC2 (11721928_a_at) / RFU IRGQ (11745062_a_at) / Fold change /veh IRGQ (11745062_a_at) / RFU FAM174B (11720279_a_at) / Fold change /veh FAM174B (11720279_a_at) / RFU TMPRSS4 (11748680_a_at) / Fold change /veh TMPRSS4 (11748680_a_at) / RFU FAM212B (11763350_a_at) / Fold change /veh FAM212B (11763350_a_at) / RFU PLEKHG5 (11743358_a_at) / Fold change /veh PLEKHG5 (11743358_a_at) / RFU ZSCAN30 (11745921_a_at) / Fold change /veh ZSCAN30 (11745921_a_at) / RFU CMKLR1 (11741424_a_at) / Fold change /veh CMKLR1 (11741424_a_at) / RFU LOC101060620 /// MAPK8IP1 (11723275_at) / Fold change /veh LOC101060620 /// MAPK8IP1 (11723275_at) / RFU SPTSSB (11747773_x_at) / Fold change /veh SPTSSB (11747773_x_at) / RFU PRSS12 (11739890_at) / Fold change /veh PRSS12 (11739890_at) / RFU BIN1 (11741810_x_at) / Fold change /veh BIN1 (11741810_x_at) / RFU WNT11 (11732464_a_at) / Fold change /veh WNT11 (11732464_a_at) / RFU C10orf10 (11716521_a_at) / Fold change /veh C10orf10 (11716521_a_at) / RFU C5orf56 (11738089_at) / Fold change /veh C5orf56 (11738089_at) / RFU CYB561 (11721691_x_at) / Fold change /veh CYB561 (11721691_x_at) / RFU ANKRD19P (11752326_a_at) / Fold change /veh ANKRD19P (11752326_a_at) / RFU OR2T12 /// OR2T33 /// OR2T8 (11738714_s_at) / Fold change /veh OR2T12 /// OR2T33 /// OR2T8 (11738714_s_at) / RFU VCAN (11748164_a_at) / Fold change /veh VCAN (11748164_a_at) / RFU JSRP1 (11732532_at) / Fold change /veh JSRP1 (11732532_at) / RFU KRTAP10-11 (11738290_x_at) / Fold change /veh KRTAP10-11 (11738290_x_at) / RFU MYO3A (11730013_a_at) / Fold change /veh MYO3A (11730013_a_at) / RFU EBF3 (11725865_a_at) / Fold change /veh EBF3 (11725865_a_at) / RFU CAMK2N1 (11719241_x_at) / Fold change /veh CAMK2N1 (11719241_x_at) / RFU C5orf56 (11738088_a_at) / Fold change /veh C5orf56 (11738088_a_at) / RFU OLFML3 (11715873_a_at) / Fold change /veh OLFML3 (11715873_a_at) / RFU LOC100653217 /// NTM (11731650_a_at) / Fold change /veh LOC100653217 /// NTM (11731650_a_at) / RFU MAPK11 (11762145_a_at) / Fold change /veh MAPK11 (11762145_a_at) / RFU FIZ1 (11724087_x_at) / Fold change /veh FIZ1 (11724087_x_at) / RFU OASL (11726364_x_at) / Fold change /veh OASL (11726364_x_at) / RFU SOX15 (11748057_x_at) / Fold change /veh SOX15 (11748057_x_at) / RFU CD79A (11719716_a_at) / Fold change /veh CD79A (11719716_a_at) / RFU HIST1H1D (11736915_at) / Fold change /veh HIST1H1D (11736915_at) / RFU CASKIN2 (11723855_a_at) / Fold change /veh CASKIN2 (11723855_a_at) / RFU LOC730098 (11760151_x_at) / Fold change /veh LOC730098 (11760151_x_at) / RFU OR4N2 (11742367_at) / Fold change /veh OR4N2 (11742367_at) / RFU PRRT2 (11749266_a_at) / Fold change /veh PRRT2 (11749266_a_at) / RFU SNX32 (11753110_a_at) / Fold change /veh SNX32 (11753110_a_at) / RFU CDHR5 (11726645_a_at) / Fold change /veh CDHR5 (11726645_a_at) / RFU RCAN1 (11760418_a_at) / Fold change /veh RCAN1 (11760418_a_at) / RFU FAM167A (11723789_a_at) / Fold change /veh FAM167A (11723789_a_at) / RFU FAM26E (11764081_at) / Fold change /veh FAM26E (11764081_at) / RFU ISYNA1 (11749810_s_at) / Fold change /veh ISYNA1 (11749810_s_at) / RFU ACY1 (11761880_at) / Fold change /veh ACY1 (11761880_at) / RFU 11764098_at / Fold change /veh 11764098_at / RFU SAMD14 (11745864_x_at) / Fold change /veh SAMD14 (11745864_x_at) / RFU NPB (11741838_a_at) / Fold change /veh NPB (11741838_a_at) / RFU TMPRSS6 (11731388_a_at) / Fold change /veh TMPRSS6 (11731388_a_at) / RFU KRTAP10-2 (11738614_at) / Fold change /veh KRTAP10-2 (11738614_at) / RFU ARHGAP8 /// PRR5-ARHGAP8 (11727945_x_at) / Fold change /veh ARHGAP8 /// PRR5-ARHGAP8 (11727945_x_at) / RFU KRTAP5-7 /// NADSYN1 (11734609_at) / Fold change /veh KRTAP5-7 /// NADSYN1 (11734609_at) / RFU RASL12 (11751679_a_at) / Fold change /veh RASL12 (11751679_a_at) / RFU CDKN2B (11736163_a_at) / Fold change /veh CDKN2B (11736163_a_at) / RFU PRF1 (11729649_at) / Fold change /veh PRF1 (11729649_at) / RFU, ZNF638 /// ZNF638-IT1 / Fold change vs veh, ZNF638 /// ZNF638-IT1 / RFU, PANK3 / Fold change vs veh, PANK3 / RFU, SH3YL1 / Fold change vs veh, SH3YL1 / RFU, ZEB2 / Fold change vs veh, ZEB2 / RFU, NRIP1 / Fold change vs veh, NRIP1 / RFU, PTTG1IP / Fold change vs veh, PTTG1IP / RFU, CAPN2 / Fold change vs veh, CAPN2 / RFU, MED14 / Fold change vs veh, MED14 / RFU, SNORA58 / Fold change vs veh, SNORA58 / RFU, C1orf63 / Fold change vs veh, C1orf63 / RFU, LRRFIP1 / Fold change vs veh, LRRFIP1 / RFU, NDUFAF7 / Fold change vs veh, NDUFAF7 / RFU, SLC12A2 / Fold change vs veh, SLC12A2 / RFU, IBTK / Fold change vs veh, IBTK / RFU, ESF1 / Fold change vs veh, ESF1 / Fold change vs veh, TMEM50B / RFU, TAOK1 / Fold change vs veh, TAOK1 / RFU, ACBD3 / Fold change vs veh, ACBD3 / RFU, TMA16 / Fold change vs veh, TMA16 / RFU, RWDD3 / Fold change vs veh, RWDD3 / RFU, BCAT1 / Fold change vs veh, BCAT1 / RFU, EDEM3 / Fold change vs veh, EDEM3 / RFU, TMEM33 / Fold change vs veh, TMEM33 / RFU, WDR75 / Fold change vs veh, WDR75 / RFU, AHCTF1 / Fold change vs veh, AHCTF1 / RFU, TFRC / Fold change vs veh, TFRC / RFU, ZDHHC17 / Fold change vs veh, ZDHHC17 / RFU, NOM1 / Fold change vs veh, NOM1 / RFU, ARL8B / Fold change vs veh, ARL8B / RFU, ZBTB11 / Fold change vs veh, ZBTB11 / RFU, TAMM41 / Fold change vs veh, TAMM41 / RFU, KIAA1704 /// LOC100996395 / Fold change vs veh, KIAA1704 /// LOC100996395 / RFU, ING1 / Fold change vs veh, ING1 / RFU, TRMT61B / Fold change vs veh, TRMT61B / RFU, FUBP3 / Fold change vs veh, FUBP3 / RFU, TP53 / Fold change vs veh, TP53 / RFU, TNKS2 / Fold change vs veh, TNKS2 / RFU, ZFP14 / Fold change vs veh, ZFP14 / RFU, ACTR2 / Fold change vs veh, ACTR2 / RFU, PPP3R1 / Fold change vs veh, PPP3R1 / RFU, PIK3R1 / Fold change vs veh, PIK3R1 / RFU, HNRNPA1 / Fold change vs veh, HNRNPA1 / RFU, RNF170 / Fold change vs veh, RNF170 / RFU, ZNF28 / Fold change vs veh, ZNF28 / RFU, RNGTT / Fold change vs veh, RNGTT / RFU, OGT / Fold change vs veh, OGT / RFU, BRD1 / Fold change vs veh, BRD1 / RFU, MARS / Fold change vs veh, MARS / RFU, ZNF655 / Fold change vs veh, ZNF655 / RFU, FAHD1 / Fold change vs veh, FAHD1 / RFU, BDP1 / Fold change vs veh, BDP1 / RFU, LRRCC1 / Fold change vs veh, LRRCC1 / RFU, ARID1A / Fold change vs veh, ARID1A / RFU, ZNF146 / Fold change vs veh, ZNF146 / RFU, ZNF330 / Fold change vs veh, ZNF330 / RFU, GPN3 / Fold change vs veh, GPN3 / RFU, C9orf123 / Fold change vs veh, C9orf123 / RFU, N4BP2L2 / Fold change vs veh, N4BP2L2 / RFU, ARFIP1 / Fold change vs veh, ARFIP1 / RFU, FAM179B / Fold change vs veh, FAM179B / RFU, BCL10 / Fold change vs veh, BCL10 / RFU, UHRF1BP1L / Fold change vs veh, UHRF1BP1L / RFU, BET1 / Fold change vs veh, BET1 / RFU, CNOT2 / Fold change vs veh, CNOT2 / RFU, ZNF268 / Fold change vs veh, ZNF268 / Fold change vs veh, ZNF507 / RFU, DGCR2 / Fold change vs veh, DGCR2 / RFU, WDSUB1 / Fold change vs veh, WDSUB1 / Fold change vs veh, HSP90B1 /// MIR3652 / RFU, ADSS / Fold change vs veh, ADSS / RFU, GK / Fold change vs veh, GK / RFU, ZNF148 / Fold change vs veh, ZNF148 / RFU, TAF9 / Fold change vs veh, TAF9 / RFU, SLC1A5 / Fold change vs veh, SLC1A5 / RFU, SLMO2 / Fold change vs veh, SLMO2 / RFU, ABCC4 / Fold change vs veh, ABCC4 / RFU, LOC101060439 /// RAP1B / Fold change vs veh, LOC101060439 /// RAP1B / RFU, RFX7 / Fold change vs veh, RFX7 / RFU, GTPBP10 / Fold change vs veh, GTPBP10 / RFU, CNEP1R1 / Fold change vs veh, CNEP1R1 / RFU, BIVM-ERCC5 /// ERCC5 / Fold change vs veh, BIVM-ERCC5 /// ERCC5 / RFU, ILF3 / Fold change vs veh, ILF3 / RFU 11762660_at / Fold change /veh 11762660_at / RFU VCAN (11757783_s_at) / Fold change /veh VCAN (11757783_s_at) / RFU DDX43 (11728927_at) / Fold change /veh DDX43 (11728927_at) / RFU KRT8 (11758188_x_at) / Fold change /veh KRT8 (11758188_x_at) / RFU NKD1 (11759106_at) / Fold change /veh NKD1 (11759106_at) / RFU SRD5A1 (11742802_a_at) / Fold change /veh SRD5A1 (11742802_a_at) / RFU TPSAB1 /// TPSB2 (11721975_s_at) / Fold change /veh TPSAB1 /// TPSB2 (11721975_s_at) / RFU GSTM3 (11746129_a_at) / Fold change /veh GSTM3 (11746129_a_at) / RFU IL23R (11737362_x_at) / Fold change /veh IL23R (11737362_x_at) / RFU TMEM51 (11727254_a_at) / Fold change /veh TMEM51 (11727254_a_at) / RFU PIWIL2 (11732686_x_at) / Fold change /veh PIWIL2 (11732686_x_at) / RFU ORM1 (11744905_x_at) / Fold change /veh ORM1 (11744905_x_at) / RFU CCDC152 (11743942_at) / Fold change /veh CCDC152 (11743942_at) / RFU ECM1 (11717891_a_at) / Fold change /veh ECM1 (11717891_a_at) / RFU IL23R (11748794_a_at) / Fold change /veh IL23R (11748794_a_at) / RFU TNFAIP8L3 (11732012_x_at) / Fold change /veh TNFAIP8L3 (11732012_x_at) / RFU MBOAT4 (11741988_at) / Fold change /veh MBOAT4 (11741988_at) / RFU 11764193_at / Fold change /veh 11764193_at / RFU TMEM53 (11763286_at) / Fold change /veh TMEM53 (11763286_at) / RFU MAGEB2 (11727129_at) / Fold change /veh MAGEB2 (11727129_at) / RFU TMEM200A (11744735_a_at) / Fold change /veh TMEM200A (11744735_a_at) / RFU CCDC152 (11751479_a_at) / Fold change /veh CCDC152 (11751479_a_at) / RFU FAM211A (11726209_a_at) / Fold change /veh FAM211A (11726209_a_at) / RFU RGS16 (11746705_a_at) / Fold change /veh RGS16 (11746705_a_at) / RFU VCAN (11755009_s_at) / Fold change /veh VCAN (11755009_s_at) / RFU RHOB (11743442_s_at) / Fold change /veh RHOB (11743442_s_at) / RFU RGS16 (11720943_a_at) / Fold change /veh RGS16 (11720943_a_at) / RFU RGS16 (11720944_at) / Fold change /veh RGS16 (11720944_at) / RFU, VPS4B / Fold change vs veh, VPS4B / RFU, CREB1 / Fold change vs veh, CREB1 / RFU, DNAJC13 / Fold change vs veh, DNAJC13 / RFU, GNAQ / Fold change vs veh, GNAQ / RFU, CDK5R1 / Fold change vs veh, CDK5R1 / RFU, ZRANB3 / Fold change vs veh, ZRANB3 / RFU, CUL4A / Fold change vs veh, CUL4A / RFU, CCNY / Fold change vs veh, CCNY / RFU, UFL1 / Fold change vs veh, UFL1 / RFU, COG3 / Fold change vs veh, COG3 / RFU, DIAPH2 / Fold change vs veh, DIAPH2 / RFU, SKA2 / Fold change vs veh, SKA2 / RFU, AFF3 / Fold change vs veh, AFF3 / RFU, LMF1 / Fold change vs veh, LMF1 / RFU, IPO11 / Fold change vs veh, IPO11 / RFU, DFFB / Fold change vs veh, DFFB / RFU, FOXP1 / Fold change vs veh, FOXP1 / RFU, CARD8 / Fold change vs veh, CARD8 / RFU, STRN3 / Fold change vs veh, STRN3 / RFU, ADK / Fold change vs veh, ADK / RFU, RASSF2 / Fold change vs veh, RASSF2 / RFU, WIPF1 / Fold change vs veh, WIPF1 / RFU, LARP1B / Fold change vs veh, LARP1B / RFU, RASA1 / Fold change vs veh, RASA1 / RFU, RB1 / Fold change vs veh, RB1 / RFU, PPFIA1 / Fold change vs veh, PPFIA1 / RFU, MAT2A / Fold change vs veh, MAT2A / RFU, CCT5 / Fold change vs veh, CCT5 / RFU, WDR92 / Fold change vs veh, WDR92 / RFU, CUX1 / Fold change vs veh, CUX1 / RFU, TTC7A / Fold change vs veh, TTC7A / RFU, TMEM135 / Fold change vs veh, TMEM135 / RFU, DEPTOR / Fold change vs veh, DEPTOR / RFU, CPM / Fold change vs veh, CPM / RFU, DNAJB6 / Fold change vs veh, DNAJB6 / RFU, CACNA2D3 / Fold change vs veh, CACNA2D3 / RFU, DTX4 / Fold change vs veh, DTX4 / RFU, TFCP2 / Fold change vs veh, TFCP2 / RFU, GMCL1 /// GMCL1P1 / Fold change vs veh, GMCL1 /// GMCL1P1 / RFU, AEBP2 / Fold change vs veh, AEBP2 / RFU, SNHG1 /// SNORD22 /// SNORD25 /// SNORD26 /// SNORD27 /// SNORD28 /// SNORD29 /// SNORD31 / Fold change vs veh, SNHG1 /// SNORD22 /// SNORD25 /// SNORD26 /// SNORD27 /// SNORD28 /// SNORD29 /// SNORD31 / Fold change (Aza/veh), C12orf56 (ProbeSet 11735607_a_at) / Fold change (ACY-1035/veh), C12orf56 (ProbeSet 11735607_a_at) / Fold change (Aza/veh), FGFR1OP (ProbeSet 11751329_s_at) / Fold change (ACY-1035/veh), FGFR1OP (ProbeSet 11751329_s_at) / Fold change (Aza/veh), VPS36 (ProbeSet 11739960_a_at) / Fold change (ACY-1035/veh), VPS36 (ProbeSet 11739960_a_at) / RFU SYPL1 (11715823_x_at) / Fold change /veh SYPL1 (11715823_x_at) / RFU IGFBP7 (11715501_s_at) / Fold change /veh IGFBP7 (11715501_s_at) / RFU REEP3 (11722064_at) / Fold change /veh REEP3 (11722064_at) / RFU IGLL1 (11728026_x_at) / Fold change /veh IGLL1 (11728026_x_at): dose or concentration left out as unconfirmed
Conditions: ProbeSet 11732154_at; LIST B

`Nc1ncn([C@@H]2O[C@H](CO)[C@@H](O)[C@H]2O)c(=O)n1` [azacitidine] was tested, and the “Fold change vs veh, OGT” value was 0.90.
